Assay results as given in US20210369853A1, “TARGETED PROTEASE DEGRADATION PLATFORM” (EUBULUS BIOTHERAPEUTICS INC., priority 2018, published 2021).

What follows are compounds tested on Human Monocytic Leukemia MV4-11 (assay: Cell proliferation experiment (Alarm blue, 72 h, EC50)). Conditions: Homo sapiens, MV4-11, MV4;11 cells.
Format: cell-based
Description: (2.1) Cell Proliferation Experiment:
Reagents: RPMI-1640 medium, McCoy's 5A medium, IMDM medium, MEM medium, L-15 medium, fetal bovine serum, Penicillin-Streptomycin double antibody, trypsin, etc., 2-mercaptoethanol, NEAA, pyruvate, etc.
The cells were cultured in conventional ways, and the cells should be passed at least for at least 2 generations before plating. Cells at the logarithmic growth phase are collected, prepared into single cell suspensions and counted. The concentration of cells was adjusted to the desired concentration, and cells were inoculated into a 96-well cell culture plate at 100 μl per well. 100 μL of complete medium of the test compound were added to each well, set up 2 duplicates for each concentration, and diluted with a 5-fold gradient, and continue to culture for 72 h. All cells were subjected to EC50 test for corresponding samples.
The fluorescence intensity of each well was detected using the Alarm blue method, and EC50 was calculated.
EC50 was calculated according to the following formula:
Y=Max+(Min−Max)/[1+(X/EC50)×Slope]
wherein Min, Max and Slope represent the minimum, maximum and slope respectively.

Row | SMILES | EC50 [nM]
1 | CC[C@@H]1C(=O)N(C)c2cnc(Nc3ccc(C(=O)NCCC(=O)N[C@H](C(=O)N4C[C@H](O)C[C@H]4C(=O)NCc4ccc(-c5scnc5C)cc4)C(C)(C)C)cc3OC)nc2N1C1CCCC1 [UB-180622] | 10 to 100
2 | CC[C@@H]1c2c(C#N)ncn2-c2cnc(Nc3ccc(C(=O)NCCC(=O)N[C@H](C(=O)N4C[C@H](O)C[C@H]4C(=O)NCc4ccc(-c5scnc5C)cc4)C(C)(C)C)cc3OC)nc2N1C1CCCC1 [UB-180623] | > 1000
3 | CC[C@@H]1C(=O)N(C)c2cnc(Nc3ccc(C(=O)NCCOCCOCCOCCNCCCCCC(=O)Nc4cccc5c4CN(C4CCC(=O)NC4=O)C5=O)cc3OC)nc2N1C1CCCC1 (stereo partly shown) [UB-180649] | 10 to 100
4 | CC[C@@H]1C(=O)N(C)c2cnc(Nc3ccc(C(=O)NCCOCCNCCCCCCCC(=O)Nc4cccc5c4CN(C4CCC(=O)NC4=O)C5=O)cc3OC)nc2N1Cc1ccc(Br)cc1 (stereo partly shown) [UB-180652] | 10 to 100
5 | CC[C@@H]1C(=O)N(C)c2cnc(Nc3ccc(C(=O)NCCOCCNCCCCCCC(=O)Nc4cccc5c4CN(C4CCC(=O)NC4=O)C5=O)cc3OC)nc2N1Cc1ccc(Br)cc1 (stereo partly shown) [UB-180653] | 100 to 1000
6 | Cc1sc2c(c1C)C(c1ccc(Cl)cc1)=N[C@@H](CC(=O)NCCOCCNCCCC(=O)Nc1cccc3c1CN(C1CCC(=O)NC1=O)C3=O)c1nnc(C)n1-2 (stereo partly shown) [UB-180656] | 100 to 1000
7 | CC[C@@H]1C(=O)N(C)c2cnc(Nc3ccc(C(=O)NCCOCCNCCCCC(=O)Nc4cccc5c4CN(C4CCC(=O)NC4=O)C5=O)cc3OC)nc2N1C1CCCC1 (stereo partly shown) [UB-180657] | 10 to 100
8 | CC[C@@H]1C(=O)N(C)c2cnc(Nc3ccc(C(=O)NCCOCCNCCCC(=O)Nc4cccc5c4CN(C4CCC(=O)NC4=O)C5=O)cc3OC)nc2N1C1CCCC1 (stereo partly shown) [UB-180662] | 10 to 100
9 | CC[C@@H]1C(=O)N(C)c2cnc(Nc3ccc(C(=O)NCCOCCOCCOCCNCC(=O)Nc4cccc5c4CN(C4CCC(=O)NC4=O)C5=O)cc3OC)nc2N1Cc1ccc(Br)cc1 (stereo partly shown) [UB-180664] | 10 to 100
10 | COc1cc(C(=O)NCCCNCCCCC(=O)Nc2cccc3c2CN(C2CCC(=O)NC2=O)C3=O)ccc1Nc1ncc2c(n1)N(Cc1ccc(Br)cc1)CC(C)(C)C(=O)N2C (stereo not shown) [UB-180670] | 100 to 1000
11 | COc1cc(C(=O)NCCCNCCCCCCCC(=O)Nc2cccc3c2CN(C2CCC(=O)NC2=O)C3=O)ccc1Nc1ncc2c(n1)N(Cc1ccc(Br)cc1)CC(C)(C)C(=O)N2C (stereo not shown) [UB-180671] | 100 to 1000
12 | COc1cc(C(=O)NCCOCCNCCCCCCC(=O)Nc2cccc3c2CN(C2CCC(=O)NC2=O)C3=O)ccc1Nc1ncc2c(n1)N(Cc1ccc(Br)cc1)CC(C)(C)C(=O)N2C (stereo not shown) [UB-180672] | 100 to 1000
13 | CC[C@@H]1C(=O)N(C)c2cnc(Nc3ccc(C(=O)NCc4cn(CCNCCCC(=O)Nc5cccc6c5CN(C5CCC(=O)NC5=O)C6=O)nn4)cc3OC)nc2N1Cc1ccc(Br)cc1 (stereo partly shown) [UB-180676] | 10 to 100
14 | COc1cc(C(=O)NCCCNCCCC(=O)Nc2cccc3c2CN(C2CCC(=O)NC2=O)C3=O)ccc1Nc1ncc2c(n1)N(Cc1ccc(Br)cc1)CC(C)(C)C(=O)N2C (stereo not shown) [UB-180677] | 100 to 1000
15 | CC[C@@H]1C(=O)N(C)c2cnc(Nc3ccc(C(=O)NCc4cn(CCNCCC(=O)Nc5cccc6c5CN(C5CCC(=O)NC5=O)C6=O)nn4)cc3OC)nc2N1Cc1ccc(Br)cc1 (stereo partly shown) [UB-180679] | 10 to 100
16 | CC[C@@H]1C(=O)N(C)c2cnc(Nc3ccc(C(=O)NCCNCCC(=O)Nc4cccc5c4CN(C4CCC(=O)NC4=O)C5=O)cc3OC)nc2N1C1CCCC1 (stereo partly shown) [UB-180682] | 10 to 100
17 | CC[C@@H]1C(=O)N(C)c2cnc(Nc3ccc(C(=O)NCCNCCC(=O)Nc4cccc5c4CN(C4CCC(=O)NC4=O)C5=O)cc3OC)nc2N1Cc1ccc(Br)cc1 (stereo partly shown) [UB-180683] | > 1000
18 | CC[C@@H]1C(=O)N(C)c2cnc(Nc3ccc(C(=O)NC4CCN(CCNCCCCC(=O)Nc5cccc6c5CN(C5CCC(=O)NC5=O)C6=O)CC4)cc3OC)nc2N1C1CCCC1 (stereo partly shown) [UB-180684] | 10 to 100
19 | CC[C@@H]1C(=O)N(C)c2cnc(Nc3ccc(C(=O)NC4CCN(CCNCCCCC(=O)Nc5cccc6c5CN(C5CCC(=O)NC5=O)C6=O)CC4)cc3OC)nc2N1Cc1ccc(Br)cc1 (stereo partly shown) [UB-180685] | 10 to 100
20 | CC[C@@H]1C(=O)N(C)c2cnc(Nc3ccc(C(=O)NC4CCN(CCNCCCC(=O)Nc5cccc6c5CN(C5CCC(=O)NC5=O)C6=O)CC4)cc3OC)nc2N1C1CCCC1 (stereo partly shown) [UB-180687] | 10 to 100
21 | CC[C@@H]1C(=O)N(C)c2cnc(Nc3ccc(C(=O)NC4CCN(CCNCCCC(=O)Nc5cccc6c5CN(C5CCC(=O)NC5=O)C6=O)CC4)cc3OC)nc2N1Cc1ccc(Br)cc1 (stereo partly shown) [UB-180688] | 10 to 100
22 | CC[C@@H]1C(=O)N(C)c2cnc(Nc3ccc(C(=O)NCCNCCCC(=O)Nc4cccc5c4CN(C4CCC(=O)NC4=O)C5=O)cc3OC)nc2N1C1CCCC1 (stereo partly shown) [UB-180689] | 10 to 100

Row | SMILES | EC50 [nM]
23 | CC[C@@H]1C(=O)N(C)c2cnc(Nc3ccc(C(=O)NCCNCCCC(=O)Nc4cccc5c4CN(C4CCC(=O)NC4=O)C5=O)cc3OC)nc2N1Cc1ccc(Br)cc1 (stereo partly shown) [UB-180690] | 10 to 100
24 | CC[C@@H]1C(=O)N(C)c2cnc(Nc3ccc(C(=O)NCc4cn(CCNCC(=O)Nc5cccc6c5CN(C5CCC(=O)NC5=O)C6=O)nn4)cc3OC)nc2N1Cc1ccc(Br)cc1 (stereo partly shown) [UB-180692] | 100 to 1000
25 | CC[C@@H]1C(=O)N(C)c2cnc(Nc3ccc(C(=O)NC4CCN(CCNCCCCC(=O)Nc5cccc6c5CN(C5CCC(=O)NC5=O)C6=O)C4)cc3OC)nc2N1C1CCCC1 (stereo partly shown) [UB-180693] | 10 to 100
26 | CC[C@@H]1C(=O)N(C)c2cnc(Nc3ccc(C(=O)NCCNCC(=O)Nc4cccc5c4CN(C4CCC(=O)NC4=O)C5=O)cc3OC)nc2N1C1CCCC1 (stereo partly shown) [UB-180694] | 100 to 1000
27 | CC[C@@H]1C(=O)N(C)c2cnc(Nc3ccc(C(=O)NCCNCC(=O)Nc4cccc5c4CN(C4CCC(=O)NC4=O)C5=O)cc3OC)nc2N1Cc1ccc(Cl)s1 (stereo partly shown) [UB-180695] | 10 to 100
28 | CC[C@@H]1C(=O)N(C)c2cnc(Nc3ccc(C(=O)NCCOCCNCCC(=O)Nc4cccc5c4CN(C4CCC(=O)NC4=O)C5=O)cc3OC)nc2N1C1CCCC1 (stereo partly shown) [UB-180696] | 10 to 100
29 | COc1cc(C(=O)NCCOCCNCCC(=O)Nc2cccc3c2CN(C2CCC(=O)NC2=O)C3=O)ccc1Nc1ncc2c(n1)N(C(C)C)[C@H](C)C(=O)N2C (stereo partly shown) [UB-180697] | 100 to 1000
30 | CC[C@@H]1C(=O)N(C)c2cnc(Nc3ccc(C(=O)NCCCNCCOCC(=O)Nc4cccc5c4CN(C4CCC(=O)NC4=O)C5=O)cc3OC)nc2N1C1CCCC1 (stereo partly shown) [UB-180698] | 10 to 100
31 | CC[C@@H]1c2c(C#N)ncn2-c2cnc(Nc3ccc(C(=O)NCCOCCOCCOCCNCCC(=O)Nc4cccc5c4CN(C4CCC(=O)NC4=O)C5=O)cc3OC)nc2N1C1CCCC1 (stereo partly shown) [UB-180700] | 100 to 1000
32 | COc1cc(C(=O)NCCOCCOCCOCCNCCC(=O)Nc2cccc3c2CN(C2CCC(=O)NC2=O)C3=O)ccc1Nc1ncc2c(n1)N(C(C)C)[C@H](C)C(=O)N2C (stereo partly shown) [UB-180702] | 10 to 100
33 | CC[C@@H]1C(=O)N(C)c2cnc(Nc3ccc(C(=O)NCCOCCNCC(=O)Nc4cccc5c4CN(C4CCC(=O)NC4=O)C5=O)cc3OC)nc2N1C1CCCC1 (stereo partly shown) [UB-180705] | 10 to 100
34 | CC[C@@H]1CN(C)c2cnc(Nc3ccc(C(=O)NCCOCCNCCC(=O)Nc4cccc5c4CN(C4CCC(=O)NC4=O)C5=O)cc3OC)nc2N1C(C)C (stereo partly shown) [UB-180706] | 100 to 1000
35 | CC[C@@H]1C(=O)N(C)c2cnc(Nc3ccc(C(=O)NCCCNCCN(C)CC(=O)Nc4cccc5c4CN(C4CCC(=O)NC4=O)C5=O)cc3OC)nc2N1C1CCCC1 (stereo partly shown) [UB-180708] | 10 to 100
36 | CC[C@@H]1C(=O)N(C)c2cnc(Nc3ccc(C(=O)NCCOCCOCCOCCN(CCC(=O)Nc4cccc5c4CN(C4CCC(=O)NC4=O)C5=O)C(=O)OCc4ccc(NC(=O)[C@H](CCCNC(N)=O)NC(=O)[C@@H](NC(=O)CCCCCN5C(=O)C=CC5=O)C(C)C)cc4)cc3OC)nc2N1C1CCCC1 (stereo partly shown) [UB-180709] | 100 to 1000
37 | CC[C@@H]1C(=O)N(C)c2cnc(Nc3ccc(C(=O)NCCOCCOCCOCCNCCC(=O)Nc4cccc5c4CN(C4CCC(=O)NC4=O)C5=O)cc3OC)nc2N1C(C)C (stereo partly shown) [UB-180710] | 10 to 100
38 | CC[C@@H]1C(=O)N(C)c2cnc(Nc3ccc(C(=O)NC4CCN(CCNCCOCC(=O)Nc5cccc6c5CN(C5CCC(=O)NC5=O)C6=O)CC4)cc3OC)nc2N1C(C)C (stereo partly shown) [UB-180712] | 10 to 100
39 | CC[C@@H]1C(=O)N(C)c2cnc(Nc3ccc(C(=O)NC4CCN(CCOCCNCC(=O)Nc5cccc6c5CN(C5CCC(=O)NC5=O)C6=O)C4)cc3OC)nc2N1C1CCCC1 (stereo partly shown) [UB-180713] | 10 to 100
40 | CC[C@@H]1C(=O)N(C)c2cnc(Nc3ccc(C(=O)NCc4cn(CCNCCCC(=O)Nc5cccc6c5CN(C5CCC(=O)NC5=O)C6=O)nn4)cc3OC)nc2N1Cc1ccc(Cl)s1 (stereo partly shown) [UB-180715] | 10 to 100
41 | CC[C@@H]1C(=O)N(C)c2cnc(Nc3ccc(C(=O)NCc4cn(CCN(C)CCCC(=O)Nc5cccc6c5CN(C5CCC(=O)NC5=O)C6=O)nn4)cc3OC)nc2N1C1CCCC1 (stereo partly shown) [UB-180716] | < 10
42 | CC[C@@H]1c2c(C#N)ncn2-c2cnc(Nc3ccc(C(=O)NCc4cn(CCNCCC(=O)Nc5cccc6c5CN(C5CCC(=O)NC5=O)C6=O)nn4)cc3OC)nc2N1C1CCCC1 (stereo partly shown) [UB-180723] | 100 to 1000
43 | O=C1CCC(N2Cc3c(NC(=O)CCNCCn4cc(CNC(=O)c5ccc(Nc6ncc7c(n6)-c6ccc(Cl)cc6C(c6c(F)cccc6F)=NC7)cc5)nn4)cccc3C2=O)C(=O)N1 (stereo not shown) [UB-180726] | 100 to 1000
